Experimental data as given in PubChem BioAssay AID248 (DTP/NCI, 2004).
Values joined by “and” are separate entries in the source; they are usually repeats but may differ in a detail not shown here. Identical values can stand only once. Inconclusive results and toxic doses are left out. Cut-off read from the data, not from the text of the source: active = T/C of 150% or more; inactive = T/C below 125%.

Tested on: L1210 leukemia ip in BDF1 mice, survival T/C
Assay: NCI In Vivo Anticancer Drug Screen. Data for tumor model L1210 Leukemia (intraperitoneal) in B6D2F1 (BDF1) mice
Details: endpoint: mean survival time, higher = longer survival
Outline: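 In this screen, tumor-bearing mice given compound are compared to those given vehicle, and their survival values are reported as a treated-to-control quotient.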

[1] = dose: 100.0 mg/kg/injection, schedule: Q01DX001 (ip), vehicle: carboxymethylcellulose (CMC)
[2] = dose: 200.0 mg/kg/injection, schedule: Q01DX001 (ip), vehicle: carboxymethylcellulose (CMC)
[3] = dose: 400.0 mg/kg/injection, schedule: Q01DX001 (ip), vehicle: carboxymethylcellulose (CMC)
[4] = dose: 50.0 mg/kg/injection, schedule: Q01DX001 (ip), vehicle: saline
[5] = dose: 100.0 mg/kg/injection, schedule: Q01DX001 (ip), vehicle: saline
[6] = dose: 200.0 mg/kg/injection, schedule: Q01DX001 (ip), vehicle: saline
[7] = dose: 400.0 mg/kg/injection, schedule: Q01DX001 (ip), vehicle: saline
[8] = dose: 100.0 mg/kg/injection, schedule: Q04DX002 (ip), vehicle: Klucel (hydroxypropylcellulose) (HPC)
[9] = dose: 200.0 mg/kg/injection, schedule: Q04DX002 (ip), vehicle: Klucel (hydroxypropylcellulose) (HPC)
[10] = dose: 400.0 mg/kg/injection, schedule: Q04DX002 (ip), vehicle: Klucel (hydroxypropylcellulose) (HPC)
[11] = dose: 100.0 mg/kg/injection, schedule: Q01DX009 (ip), vehicle: Klucel (hydroxypropylcellulose) (HPC)
[12] = dose: 100.0 mg/kg/injection, schedule: Q04DX003 (ip), vehicle: Klucel (hydroxypropylcellulose) (HPC)
[13] = dose: 200.0 mg/kg/injection, schedule: Q01DX009 (ip), vehicle: Klucel (hydroxypropylcellulose) (HPC)
[14] = dose: 200.0 mg/kg/injection, schedule: Q04DX003 (ip), vehicle: Klucel (hydroxypropylcellulose) (HPC)
[15] = dose: 400.0 mg/kg/injection, schedule: Q01DX009 (ip), vehicle: Klucel (hydroxypropylcellulose) (HPC)
[16] = dose: 400.0 mg/kg/injection, schedule: Q04DX003 (ip), vehicle: Klucel (hydroxypropylcellulose) (HPC)
[17] = dose: 100.0 mg/kg/injection, schedule: Q01DX001 (ip), vehicle: Klucel (hydroxypropylcellulose) (HPC)
[18] = dose: 200.0 mg/kg/injection, schedule: Q01DX001 (ip), vehicle: Klucel (hydroxypropylcellulose) (HPC)
[19] = dose: 400.0 mg/kg/injection, schedule: Q01DX001 (ip), vehicle: Klucel (hydroxypropylcellulose) (HPC)

Measured: T/C

OC1c2ccccc2C(O)C2C3C=CC(CC3)C12 (centres undefined)
inactive: dose: 50.0 mg/kg/injection, schedule: Q01DX001 (ip), vehicle: carboxymethylcellulose (CMC) 93 % of control | [1] 98 % of control | [2] 98 % of control | [3] 98 % of control

C=C(CC(N)=O)C(=O)O (tested in a mixture with another compound)
inactive: dose: 6.25 mg/kg/injection, schedule: Q01DX009 (ip), vehicle: saline 97 % of control | dose: 12.5 mg/kg/injection, schedule: Q01DX009 (ip), vehicle: saline 100 % of control | dose: 20.0 mg/kg/injection, schedule: Q01DX009 (ip), vehicle: saline 105 % of control | dose: 25.0 mg/kg/injection, schedule: Q01DX009 (ip), vehicle: saline 105 % of control | dose: 35.0 mg/kg/injection, schedule: Q01DX009 (ip), vehicle: saline 94 % of control | [4] 107 % of control | dose: 50.0 mg/kg/injection, schedule: Q01DX009 (ip), vehicle: saline 106 % of control | dose: 65.0 mg/kg/injection, schedule: Q01DX009 (ip), vehicle: saline 102 % of control | [5] 118 % of control | dose: 100.0 mg/kg/injection, schedule: Q01DX009 (ip), vehicle: saline 111 % of control | dose: 125.0 mg/kg/injection, schedule: Q01DX009 (ip), vehicle: saline 119 % of control | dose: 177.0 mg/kg/injection, schedule: Q01DX001 (ip), vehicle: saline 110 % of control | [6] 107 % of control | dose: 200.0 mg/kg/injection, schedule: Q01DX009 (ip), vehicle: saline 111 % of control | dose: 266.0 mg/kg/injection, schedule: Q01DX001 (ip), vehicle: saline 124 % of control | dose: 270.0 mg/kg/injection, schedule: Q01DX001 (ip), vehicle: saline 110 % of control | dose: 270.0 mg/kg/injection, schedule: Q01DX009 (ip), vehicle: saline 120 % of control and 123 % of control | [7] 111 % of control | dose: 400.0 mg/kg/injection, schedule: Q01DX009 (ip), vehicle: saline 101 % of control and 111 % of control and 117 % of control | dose: 600.0 mg/kg/injection, schedule: Q01DX001 (ip), vehicle: saline 114 % of control | dose: 600.0 mg/kg/injection, schedule: Q01DX009 (ip), vehicle: saline 113 % of control | dose: 800.0 mg/kg/injection, schedule: Q01DX001 (ip), vehicle: saline 122 % of control | dose: 1000.0 mg/kg/injection, schedule: Q01DX001 (ip), vehicle: saline 113 % of control

O=C1Nc2ccc(Br)cc2C1=Nc1ccc2c(c1)OCO2
inactive: [8] 100 % of control | [9] 95 % of control | [10] 100 % of control

O=CC(C=O)[N+](=O)[O-]
inactive: [11] 100 % of control | [8] 97 % of control | [12] 97 % of control | [13] 105 % of control | [9] 94 % of control | [14] 102 % of control | [15] 108 % of control | [10] 105 % of control | [16] 102 % of control

O=C(O)c1cccc(Sc2ccccc2)c1
inactive: [1] 100 % of control | [2] 90 % of control | [3] 102 % of control

Cc1ccc(S(=O)(=O)NS(=O)(=O)c2ccc(C)cc2)cc1
inactive: [5] 101 % of control | [12] 100 % of control | [6] 106 % of control

CSc1ccccc1N=NN(C)C
inactive: [11] 101 % of control | [13] 97 % of control and 105 % of control | [15] 95 % of control and 100 % of control | dose: 800.0 mg/kg/injection, schedule: Q01DX009 (ip), vehicle: Klucel (hydroxypropylcellulose) (HPC) 121 % of control

CNC1(c2ccccc2)CC1
inactive: dose: 75.0 mg/kg/injection, schedule: Q04DX002 (ip), vehicle: saline 100 % of control | dose: 150.0 mg/kg/injection, schedule: Q04DX002 (ip), vehicle: saline 87 % of control

O=S1(=O)CCCN1c1ccccn1
inactive: dose: 100.0 mg/kg/injection, schedule: Q04DX002 (ip), vehicle: other 104 % of control | dose: 200.0 mg/kg/injection, schedule: Q04DX002 (ip), vehicle: other 89 % of control | dose: 400.0 mg/kg/injection, schedule: Q04DX002 (ip), vehicle: other 96 % of control

Cc1ncc(CO)c(Cc2ccccc2N(C)C)c1O
inactive: dose: 100.0 mg/kg/injection, schedule: Q04DX002 (ip), vehicle: saline with Tween-80 92 % of control | dose: 200.0 mg/kg/injection, schedule: Q04DX002 (ip), vehicle: saline with Tween-80 95 % of control

CCOc1cccc(Cc2c[nH]c(=S)[nH]c2=O)c1
inactive: [17] 100 % of control | [18] 105 % of control | [19] 94 % of control

CC(C)(C)NC(=O)Nc1cccc(O)c1
inactive: [11] 95 % of control | [13] 100 % of control | [15] 104 % of control

CC(C)(C)OC(=O)C(C=O)N1C(=O)c2ccccc2C1=O (centres undefined)
inactive: [17] 94 % of control | dose: 100.0 mg/kg/injection, schedule: Q01DX009 (ip), vehicle: saline sonified 100 % of control | [18] 92 % of control | dose: 200.0 mg/kg/injection, schedule: Q01DX009 (ip), vehicle: saline sonified 94 % of control | [19] 100 % of control | dose: 400.0 mg/kg/injection, schedule: Q01DX009 (ip), vehicle: saline sonified 98 % of control

CCOC(=O)c1cc2cc([N+](=O)[O-])ccc2oc1=O
inactive: [12] 93 % of control | [14] 93 % of control | [16] 94 % of control

CN1C=CC(C(C(N)=O)c2ccccc2)c2ccccc21 (centres undefined)
inactive: dose: 100.0 mg/kg/injection, schedule: Q01DX009 (ip), vehicle: saline with Tween-80 95 % of control | dose: 200.0 mg/kg/injection, schedule: Q01DX009 (ip), vehicle: saline with Tween-80 92 % of control | dose: 400.0 mg/kg/injection, schedule: Q01DX009 (ip), vehicle: saline with Tween-80 92 % of control

CCCCOC(=O)C(C)OC(=O)Nc1ccccc1 (centres undefined)
inactive: dose: 100.0 mg/kg/injection, schedule: Q01DX009 (sc), vehicle: olive oil, sesame oil, peanut oil 95 % of control | dose: 100.0 mg/kg/injection, schedule: Q04DX003 (sc), vehicle: olive oil, sesame oil, peanut oil 100 % of control | dose: 200.0 mg/kg/injection, schedule: Q01DX009 (sc), vehicle: olive oil, sesame oil, peanut oil 92 % of control | dose: 200.0 mg/kg/injection, schedule: Q04DX003 (sc), vehicle: olive oil, sesame oil, peanut oil 105 % of control | dose: 400.0 mg/kg/injection, schedule: Q01DX009 (sc), vehicle: olive oil, sesame oil, peanut oil 92 % of control | dose: 400.0 mg/kg/injection, schedule: Q04DX003 (sc), vehicle: olive oil, sesame oil, peanut oil 115 % of control

C=CC[N+](C)(C)C
inactive: dose: 75.0 mg/kg/injection, schedule: Q01DX001 (ip), vehicle: saline 101 % of control

CCCCCCCCCCCCCCCCCCCC[As](=O)(O)CCCCCCCCCCCCCCCCCCCC
inactive: [4] 97 % of control | [5] 101 % of control | [6] 95 % of control | [7] 103 % of control

CCOC(=O)C1=C(C)NC(C)=C(C(=O)OCC)C1c1ccccc1[N+](=O)[O-]
inactive: dose: 6.25 mg/kg/injection, schedule: Q01DX009 (ip), vehicle: saline with Tween-80 97 % of control | dose: 12.5 mg/kg/injection, schedule: Q01DX009 (ip), vehicle: saline with Tween-80 108 % of control | dose: 25.0 mg/kg/injection, schedule: Q01DX009 (ip), vehicle: saline with Tween-80 98 % of control and 105 % of control | dose: 100.0 mg/kg/injection, schedule: Q04DX003 (ip), vehicle: saline with Tween-80 90 % of control
